Among the data in US10519134B2, “Pyrazole compounds and methods of making and using same” (Lundbeck La Jolla Research Center, Inc., priority 2015, dated 2019) are IC50 and inhibition values, retold here.

In one experiment the target is T1, FAAH (Mus musculus, UniProt O08914).
T1 construct: Proteomes (mouse brain membrane fraction or cell lysates); from tissue; host or cells: mouse brain membrane fraction (or cell lysates)
T1 sequence (O08914 1-579): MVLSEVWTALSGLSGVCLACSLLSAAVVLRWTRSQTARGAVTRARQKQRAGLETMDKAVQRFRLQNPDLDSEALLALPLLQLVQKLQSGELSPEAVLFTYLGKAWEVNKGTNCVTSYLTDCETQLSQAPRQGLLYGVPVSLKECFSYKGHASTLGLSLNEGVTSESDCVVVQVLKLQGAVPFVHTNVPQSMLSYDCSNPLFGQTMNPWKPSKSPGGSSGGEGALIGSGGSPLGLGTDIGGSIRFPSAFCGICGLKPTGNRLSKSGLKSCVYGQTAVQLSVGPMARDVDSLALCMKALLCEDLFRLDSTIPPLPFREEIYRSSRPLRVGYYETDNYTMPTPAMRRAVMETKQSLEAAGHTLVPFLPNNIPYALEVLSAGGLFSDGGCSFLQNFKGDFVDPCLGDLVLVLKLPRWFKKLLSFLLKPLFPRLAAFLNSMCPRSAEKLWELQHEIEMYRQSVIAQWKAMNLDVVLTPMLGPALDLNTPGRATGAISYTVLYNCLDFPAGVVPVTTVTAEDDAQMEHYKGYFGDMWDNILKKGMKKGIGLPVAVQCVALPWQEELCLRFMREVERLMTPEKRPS
The experiment can be described thus: In vitro competitive activity-based protein profiling (mouse), FAAH gel band. It counts as biochemical. The settings on record: for IC50: mouse; for inhibition at 1 µM: read-out: FAAH % inh. 1 μM. On the procedure: (§1) In Vitro Competitive Activity-Based Protein Profiling (Mouse).
(§2) Proteomes (mouse brain membrane fraction or cell lysates) (50 μL, 1.0 mg/mL total protein concentration) were preincubated with varying concentrations of inhibitors at 37° C. After 30 min, FP-Rh or HT-01 (1.0 μL, 50 μM in DMSO) was added and the mixture was incubated for another 30 min at 37° C. Reactions were quenched with SDS loading buffer (15 μL—4×) and run on SDS-PAGE. Following gel imaging, serine hydrolase activity was determined by measuring fluorescent intensity of gel bands corresponding to MAGL, ABHD6, and FAAH, using ImageJ 1.43u software.

The target of another experiment is T2, MAGL (Mus musculus, UniProt O35678).
T2 construct: Proteomes (mouse brain membrane fraction or cell lysates); from tissue; host or cells: mouse brain membrane fraction (or cell lysates)
T2 sequence (O35678 1-303): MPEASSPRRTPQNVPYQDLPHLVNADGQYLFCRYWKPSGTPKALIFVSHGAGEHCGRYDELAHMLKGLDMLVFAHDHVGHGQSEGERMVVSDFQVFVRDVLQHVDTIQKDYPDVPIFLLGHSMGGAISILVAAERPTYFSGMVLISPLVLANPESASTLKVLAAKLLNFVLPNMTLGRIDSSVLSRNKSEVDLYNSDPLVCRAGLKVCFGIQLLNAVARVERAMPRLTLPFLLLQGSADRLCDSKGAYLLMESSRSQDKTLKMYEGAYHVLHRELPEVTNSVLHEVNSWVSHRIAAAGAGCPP
The experiment can be described thus: In vitro competitive activity-based protein profiling (mouse), MAGL gel band. Type of experiment: biochemical. The conditions noted are these: for IC50: mouse; for inhibition at 1 µM: read-out: MAGL % inh. 1 μM. On the procedure: as §1, §2

A value given as a limit tells only on which side of the number the result lay.

In general, IC50 refers to the concentration at which inhibition is half-maximal. A higher IC50 goes with weaker potency.

For `CC(=O)Nc1ccn(C(=O)N2CCC3(CCCN3Cc3ccc(C(F)(F)F)cc3N3CCN(C4CC4)CC3)CC2)n1` [Example 30, N-(1-(1-(2-(4-cyclopropylpiperazin-1-yl)-4-(trifluoromethyl)benzyl)-1,8-diazaspiro[4.5]decane-8-carbonyl)-1H-pyrazol-3-yl)acetamide], the IC50 was 1 to 10 µM on FAAH and 0.1 to 1 µM on MAGL. The results for the inhibition at 1 µM on FAAH and at MAGL were 0 to 25% and no less than 75%, respectively.

For `CC(=O)Nc1ccn(C(=O)N2CCC3(CCCN3Cc3ccc(Cl)cc3N3CCN(S(C)(=O)=O)CC3)CC2)n1` [Example 35, N-(1-(1-(4-chloro-2-(4-(methylsulfonyl)piperazin-1-yl)benzyl)-1,8-diazaspiro[4.5]decane-8-carbonyl)-1H-pyrazol-3-yl)acetamide], at FAAH, the IC50 was 1 to 10 µM and the inhibition at 1 µM was 0 to 25%. Besides, on MAGL, the IC50 lay in the range of 0.1 to 1 µM and the inhibition at 1 µM was no less than 75%.

Consider `CC(=O)Nc1ccn(C(=O)N2CCC3(CCCN3Cc3ccc(Cl)cc3N3CCN(C(C)=O)CC3)CC2)n1` [Example 36, N-(1-(1-(2-(4-acetylpiperazin-1-yl)-4-chlorobenzyl)-1,8-diazaspiro[4.5]decane-8-carbonyl)-1H-pyrazol-3-yl)acetamide], for which the IC50 was in the range of 1 to 10 µM on FAAH and 0.1 to 1 µM at MAGL. Also, the results for the inhibition at 1 µM on FAAH and at MAGL were 0 to 25% and no less than 75%, respectively.

In the case of `CC(=O)Nc1ccn(C(=O)N2CCN(Cc3ccc(C(F)(F)F)cc3N3CCC(F)(F)CC3)CC2)n1` [Example 46, N-(1-(4-(2-(4,4-difluoropiperidin-1-yl)-4-(trifluoromethyl)benzyl)piperazine-1-carbonyl)-1H-pyrazol-3-yl)acetamide], the half-maximal inhibitory concentration (IC50) at FAAH was 1 to 10 µM; at MAGL, no more than 0.1 µM. Further, the values for the inhibition at 1 µM at FAAH and at MAGL were 0 to 25% and no less than 75%, respectively.

In the case of `CC(=O)Nc1ccn(C(=O)N2CCN(Cc3ccc(Cl)cc3N3CCC(F)(F)CC3)CC2)n1` [Example 57, N-(1-(4-(4-chloro-2-(4,4-difluoropiperidin-1-yl)benzyl)piperazine-1-carbonyl)-1H-pyrazol-3-yl)acetamide], the results for the half-maximal inhibitory concentration (IC50) on FAAH and at MAGL were 1 to 10 µM and no more than 0.1 µM, respectively. The inhibition at 1 µM on FAAH was 0 to 25%; on MAGL, no less than 75%.

Turning to `CCN1CCN(c2cc(Cl)ccc2CN2CCN(C(=O)n3ccc(NC(C)=O)n3)CC2)CC1` [Example 59, N-(1-(4-(4-chloro-2-(4-ethylpiperazin-1-yl)benzyl)piperazine-1-carbonyl)-1H-pyrazol-3-yl)acetamide], on FAAH, the IC50 was 1 to 10 µM and the inhibition at 1 µM was in the range of 0 to 25%. At MAGL, the 50% inhibitory concentration (IC50) lay within 0.1 to 1 µM and the inhibition at 1 µM was no less than 75%.

In the case of `CC(=O)Nc1ccn(C(=O)N2CCC3(CCCN3Cc3cc(Cl)cc(N4C5CCC4COC5)c3)CC2)n1` [Example 64, N-(1-(1-(3-(3-oxa-8-azabicyclo[3.2.1]octan-8-yl)-5-chlorobenzyl)-1,8-diazaspiro[4.5]decane-8-carbonyl)-1H-pyrazol-3-yl)acetamide], at FAAH, the IC50 is 1 to 10 µM and the inhibition at 1 µM is 0 to 25%. Moreover, on MAGL, the half-inhibitory concentration (IC50) is no more than 0.1 µM and the inhibition at 1 µM is no less than 75%.

With `CC(=O)Nc1ccn(C(=O)N2CCC3(CCCN3Cc3cc(Cl)cc(N4CC5CN(C(C)=O)CC5C4)c3)CC2)n1` (stereo not shown) [Example 65, N-(1-(1-(3-(5-acetylhexahydropyrrolo[3,4-c]pyrrol-2(1H)-yl)-5-chlorobenzyl)-1,8-diazaspiro[4.5]decane-8-carbonyl)-1H-pyrazol-3-yl)acetamide], the inhibition at 1 µM at FAAH was 25 to 50%; on MAGL, no less than 75%.

Regarding `CC(=O)N(C)c1ccn(C(=O)N2CCC3(CCCN3Cc3cc(N4CCCC4)cc(C(F)(F)F)c3)CC2)n1` [Example 66, N-methyl-N-(1-(1-(3-(pyrrolidin-1-yl)-5-(trifluoromethyl)benzyl)-1,8-diazaspiro[4.5]decane-8-carbonyl)-1H-pyrazol-3-yl)acetamide], the values for the inhibition at 1 µM at FAAH and on MAGL were 0 to 25% and 50 to 75%, respectively.

Regarding `CC(=O)N(C)c1ccn(C(=O)N2CCC3(CCCN3Cc3cc(N4C5CCC4COC5)cc(C(F)(F)F)c3)CC2)n1` [Example 67, N-(1-(1-(3-(3-oxa-8-azabicyclo[3.2.1]octan-8-yl)-5-(trifluoromethyl)benzyl)-1,8-diazaspiro[4.5]decane-8-carbonyl)-1H-pyrazol-3-yl)-N-methylacetamide], the inhibition at 1 µM at FAAH and on MAGL was 0 to 25% each time.

In the case of `CC(=O)N(C)c1ccn(C(=O)N2CCC3(CCCN3Cc3ccc(C(F)(F)F)cc3N3CCCC3)CC2)n1` [Example 68, N-methyl-N-(1-(1-(2-(pyrrolidin-1-yl)-4-(trifluoromethyl)benzyl)-1,8-diazaspiro[4.5]decane-8-carbonyl)-1H-pyrazol-3-yl)acetamide], the inhibition at 1 µM fell in the range of 0 to 25% at FAAH and 50 to 75% at MAGL.

As to `CC(=O)N(C)c1ccn(C(=O)N2CCN(Cc3cc(N4CCCC4)cc(C(F)(F)F)c3)CC2)n1` [Example 70, N-methyl-N-(1-(4-(3-(pyrrolidin-1-yl)-5-(trifluoromethyl)benzyl)piperazine-1-carbonyl)-1H-pyrazol-3-yl)acetamide], the half-inhibitory concentration (IC50) at FAAH was in the range of 1 to 10 µM; at MAGL, 0.1 to 1 µM. The inhibition at 1 µM at FAAH was 0 to 25%; at MAGL, no less than 75%.

With `CC(=O)Nc1ccn(C(=O)N2CCN(Cc3ccc(C(F)(F)F)cc3Oc3nc4ccccc4s3)CC2)n1` [Example 75, N-(1-(4-(2-(benzo[d]thiazol-2-yloxy)-4-(trifluoromethyl)benzyl)piperazine-1-carbonyl)-1H-pyrazol-3-yl)acetamide], on FAAH, the IC50 lay in the range of 1 to 10 µM and the inhibition at 1 µM was in the range of 0 to 25%. Besides, at MAGL, the IC50 was no more than 0.1 µM and the inhibition at 1 µM was no less than 75%.

`CC(=O)Nc1ccn(C(=O)N2CCN(Cc3cc(Oc4nc5ccccc5s4)cc(C(F)(F)F)c3)CC2)n1` [Example 76, N-(1-(4-(3-(benzo[d]thiazol-2-yloxy)-5-(trifluoromethyl)benzyl)piperazine-1-carbonyl)-1H-pyrazol-3-yl)acetamide]: on FAAH, the concentration for half-maximal inhibition (IC50) was in the range of 0.1 to 1 µM and the inhibition at 1 µM is no less than 75%. On MAGL, the concentration for half-maximal inhibition (IC50) is no more than 0.1 µM and the inhibition at 1 µM is no less than 75%.

Regarding `CC(=O)Nc1ccn(C(=O)N2CCN(Cc3ccc(C(F)(F)F)cc3OC3CCS(=O)(=O)CC3)CC2)n1` [Example 77, N-(1-(4-(2-((1,1-dioxidotetrahydro-2H-thiopyran-4-yl)oxy)-4-(trifluoromethyl)benzyl)piperazine-1-carbonyl)-1H-pyrazol-3-yl)acetamide], the inhibition at 1 µM on FAAH was 0 to 25%; on MAGL, no less than 75%.

For `CC(=O)Nc1ccn(C(=O)N2CCC3(CCCN3Cc3cc(Oc4nc5ccccc5s4)cc(C(F)(F)F)c3)CC2)n1` [Example 86, N-(1-(1-(3-(benzo[d]thiazol-2-yloxy)-5-(trifluoromethyl)benzyl)-1,8-diazaspiro[4.5]decane-8-carbonyl)-1H-pyrazol-3-yl)acetamide], the inhibition at 1 µM is 50 to 75% on FAAH and no less than 75% at MAGL.
